Experimental data taken from patent US9549942B2, “Composition for preventing or treating degenerative brain diseases including compound downregulating expression of BACE1 proteins” (RESEARCH & BUSINESS FOUNDATION SUNGKYUNKWAN UNIVERSITY, priority 2013, dated 2017).

Tests used:
[1] = tested on: Aβ; experiment: Generation of Aβ in brain cortex, immuno staining; type: in vivo; conditions: 3×Tg-AD mouse, 25 mg/kg orally every day for 4 weeks
Experimental: (§1) As an Alzheimer's dementia animal model, 3×Tg-AD mice were used. The 3×Tg-AD mouse is a mouse having overexpressed presenilin, amyloid precursor protein (APP), and Tau genes, which are frequently found in Alzheimer's dementia. The 3×Tg-AD mouse is an animal model that is widely used for research on Alzheimer's dementia (Oddo S. et al, 2003, Neuron, 39, 409-421). 25 mg/kg of chlorhexidine was orally administered every day for 4 weeks; and 0.1 mg/kg and 0.5 mg/kg of thioguanosine were orally administered every day for 8 weeks to 6-month old 3×Tg-AD mice. A Morris water maze test was used to evaluate the effects of chlorhexidine and thioguanosine administration on the mice.
From the 3×Tg-AD mouse to which chlorhexidine was administered in Example 4a brain was extracted. A […] frozen section was prepared from the extracted brain using a microtome. Then, generation of Aβ was measured using immuno staining or a human amyloid 13 (1-40) assay kit (IBL) and a human amyloid β (1-42) assay kit (IBL). FIGS. 20 and 21 show the results.

[2] = tested on: BACE1 proteins; experiment: Amount of expression of BACE1 proteins in brain nerve cells (Western blot); type: cell-based, human; conditions: SH-SY5Y cells, treated 24 hours at 0.625, 1.25, 2.5, 5 and 10 μM, actin control
Experimental: As brain nerve cells, human neuroblastoma cells SH-SY5Y were used. […] The SH-SY5Y cells were plated at 5×10^5 cells/well into a 6-well plate. […] Then, the amount of expression of BACE1 proteins was determined by Western blot. Actin was used throughout as a control.

[3] = Body weights and weights of organs (potential toxicity); conditions: mouse, in vivo, po, 25 mg/kg
Experimental: as §1
In order to evaluate potential toxicity of chorhexidine, the body weights and weights of organs were measured for treatment and vehicle subjects.

[4] = tested on: APP CTFs (C83 and C99); experiment: Generation of APP CTFs (C83 and C99) under oxidative stress conditions of brain nerve cells (Western blot); type: cell-based, human; conditions: SH-SY5Y cells pretreated 24 hours at 5 and 10 μM, then HNE
Experimental: In order to determine an influence of chlorhexidine and thioguanosine of the present disclosure on APP CTFs under oxidative stress conditions of brain nerve cells, the following experiment was performed. Brain nerve cells, SH-SY5Y cells, were pretreated with chlorhexidine and thioguanosine at 5 μM and 10 μM for 24 hours. Then, an oxidative stress substance HNE (4-hydroxynonenal) was used as the treatment, and the generation of APP CTFs (C83 and C99) was determined by Western blot. Under oxidative stress conditions of brain nerve cells treated in accordance with the present disclosure, changes in the generation of APP CTFs are shown in FIGS. 11 and 12.

[5] = tested on: 3×Tg-AD mice; experiment: Morris water maze test, learning ability, Alzheimer's dementia animal model; type: in vivo, mouse; conditions: 25 mg/kg orally every day for 4 weeks, on the third and fourth days
Experimental: as §1, with “the mice. […] In this configuration, a treated or control subject was placed into the water with its head towards a water tank wall surface, and a time was recorded for the length of time taken for finding the escape platform. […] After 15 minutes, the mouse was placed into the water again, a subsequent time taken for finding the escape platform was recorded, and a change in the learning ability was determined. This procedure was performed over four days, and the result of change in learning ability was measured. […]” for “the mice.”

Structure (SMILES): [H]/N=C(\N/C(=N/[H])NCCCCCCNC(=N)NC(=N)Nc1ccc(Cl)cc1)Nc1ccc(Cl)cc1 [chlorhexidine, N′,N′″″-hexane-1,6-diylbis[N-(4-chlorophenyl)(imidodicarbonimidic diamide)]]
- generation of Aβ in cortex part of brain [1]: lower generation of Aβ than that of the control group
- amount of expression of BACE1 proteins [2]: decreased at 5 μM and 10 μM
- toxicity [3]: no toxicity was determined
- increase in CTFs due to oxidative stress [4]: decreased at 5 μM and 10 μM
- learning ability for finding the platform (Morris water maze) [5]: faster learning ability for finding the platform than a control group
